Series [1] relates to CHEAL = lambsquarter (Chenopodium album). Description: General postemergence herbicidal activity, lambsquarter. It is filed as in vivo. Particulars: post-emergent, 140 g ai/ha, visual score after 14 days (0 no injury, 100 complete kill); for pest or weed control at 140 g/ha: Chenopodium album, post-emergence, 336 h. As for the experimental part:
(§1) Seeds or nutlets of the desired test plant species were planted in Sun Gro MetroMix® 306 planting mixture, which typically has a pH of 6.0 to 6.8 and an organic matter content of about 30 percent, in plastic pots with a surface area of 64 square centimeters. When required to ensure good germination and healthy plants, a fungicide treatment and/or other chemical or physical treatment was applied. The plants were grown for 7-21 days in a greenhouse with an approximate 15 hour photoperiod which was maintained at about 23-29° C. during the day and 22-28° C. during the night. Nutrients and water were added on a regular basis and supplemental lighting was provided with overhead metal halide 1000-Watt lamps as necessary. The plants were employed for testing when they reached the first or second true leaf stage.
(§2) A weighed amount, determined by the highest rate to be tested, of each test compound was placed in a 25 mL glass vial and was dissolved in 4 mL of a 97:3 v/v (volume/volume) mixture of acetone and dimethyl sulfoxide (DMSO) to obtain concentrated stock solutions. […] The concentrated stock solutions obtained were diluted with 20 mL of an aqueous mixture containing acetone, water, isopropyl alcohol, DMSO, Atplus 411F crop oil concentrate, and Triton X-155 surfactant in a 48.5:39:10:1.5:1.0:0.02 v/v ratio to obtain spray solutions containing the highest application rates. Additional application rates were obtained by serial dilution of 12 mL of the high rate solution into a solution containing 2 mL of 97:3 v/v (volume/volume) mixture of acetone and dimethyl sulfoxide (DMSO) and 10 mL of an aqueous mixture containing acetone, water, isopropyl alcohol, DMSO, Atplus 411F crop oil concentrate, and Triton X-155 surfactant in a 48.5:39:10:1.5:1.0:0.02 v/v ratio to obtain ½×, ¼×, ⅛× and 1/16× rates of the high rate. Compound requirements are based upon a 12 mL application volume at a rate of 187 L/ha. Formulated compounds were applied to the plant material with an overhead Mandel track sprayer equipped with a 8002E nozzles calibrated to deliver 187 L/ha over an application area of 0.503 square meters at a spray height of 18 inches (43 cm) above the average plant canopy height. Control plants were sprayed in the same manner with the solvent blank.
(§3) The treated plants and control plants were placed in a greenhouse as described above and watered by sub-irrigation to prevent wash-off of the test compounds. After 14 days, the condition of the test plants as compared with that of the untreated plants was determined visually and scored on a scale of 0 to 100 percent where 0 corresponds to no injury and 100 corresponds to complete kill.
(§4) By applying the well-accepted probit analysis as described by J. Berkson in Journal of the […], 48, 565 (1953) and by D. Finney in “Probit Analysis” Cambridge University Press (1952), the above data can be used to calculate GR50 and GR80 values, which are defined as growth reduction factors that correspond to the effective dose of herbicide required to kill or control 50 percent or 80 percent, respectively, of a target plant.

Series [2] relates to ABUTH = velvetleaf (Abutilon theophrasti). Nature of the series: General postemergence herbicidal activity, velvetleaf. Particulars: post-emergent, 140 g ai/ha, visual score after 14 days (0 no injury, 100 complete kill); for pest or weed control at 140 g/ha: Abutilon theophrasti, post-emergence, 336 h. The format is in vivo. As to the method:
as §1, §2, §3, §4

Series [3] deals with HELAN = sunflower (Helainthus annuus). Nature of the series: General postemergence herbicidal activity, sunflower. Particulars: post-emergent, 140 g ai/ha, visual score after 14 days (0 no injury, 100 complete kill); for pest or weed control at 140 g/ha: post-emergence, 336 h. The format is in vivo. As for the experimental part:
as §1, §2, §3, §4

In series [4] the test system is CHEAL = lambsquarter (Chenopodium album). Description: General preemergence herbicidal activity, lambsquarter. The format is in vivo. Particulars: pre-emergent, 140 g ai/ha, visual score after 20-22 days; for pest or weed control at 140 g/ha: Chenopodium album, pre-emergence, 480 h. From the text: (§5) Seeds of the desired test plant species were planted in a soil matrix prepared by mixing a loam soil (43 percent silt, 19 percent clay, and 38 percent sand, with a pH of about 8.1 and an organic matter content of about 1.5 percent) and sand in a 70 to 30 ratio. The soil matrix was contained in plastic pots with a surface area of 113 square centimeters. When required to ensure good germination and healthy plants, a fungicide treatment and/or other chemical or physical treatment was applied. A weighed amount, determined by the highest rate to be tested, of each test compound was placed in a 25 mL glass vial and was dissolved in 6 mL of a 97:3 v/v (volume/volume) mixture of acetone and DMSO to obtain concentrated stock solutions. […] The stock solutions obtained were diluted with 18 mL of a 0.1% v/v aqueous solution of Tween® 20 surfactant to obtain spray solutions containing the highest application rate. Additional application rates were obtained by serial dilution of 12 mL of the high rate solution into a solution containing 3 mL of 97:3 v/v mixture of acetone and DMSO and 9 mL of the 0.1% v/v aqueous solution of Tween® 20 surfactant to obtain 1⁄2×, 1⁄4×, 1⁄8× and 1/16× rates of the high rate. Compound requirements are based upon a 12 mL application volume at a rate of 187 L/ha. Formulated compounds were applied to the plant material with an overhead Mandel track sprayer equipped with a […] nozzles calibrated to deliver 187 L/ha over an application area of 0.503 square meters at a spray height of 18 inches (43 cm) above the soil surface. Control plants were sprayed in the same manner with the solvent blank. The treated pots and control pots were placed in a greenhouse maintained with an approximate 15 hour photoperiod and temperatures of about 23-29° C. during the day and 22-28° C. during the night. Nutrients and water were added on a regular basis and supplemental lighting was provided with overhead metal halide 1000-Watt lamps as necessary. The water was added by top-irrigation. After 20-22 days, the condition of the test plants that germinated and grew as compared with that of the untreated plants that emerged and grew was determined visually and scored on a scale of 0 to 100 percent where 0 corresponds to no injury and 100 corresponds to complete kill or no emergence.

Series [5] deals with ABUTH = velvetleaf (Abutilon theophrasti). Nature of the series: General preemergence herbicidal activity, velvetleaf. It is filed as in vivo. Particulars: pre-emergent, 140 g ai/ha, visual score after 20-22 days; for pest or weed control at 140 g/ha: Abutilon theophrasti, pre-emergence, 480 h.
Excerpt: as §5

The subject of series [6] is HELAN = sunflower (Helianthus annuus). Description: General preemergence herbicidal activity, sunflower. The format is in vivo. Particulars: pre-emergent, 140 g ai/ha, visual score after 20-22 days; for pest or weed control at 140 g/ha: Helianthus annuus, pre-emergence, 480 h.
Excerpt: as §5

For `COC(=O)c1nc(-c2cc(OC)c(Cl)cc2F)nc(N)c1Cl` [Compound 5, 6-Amino-5-chloro-2-(4-chloro-2-fluoro-5-methoxyphenyl)pyrimidine-4-carboxylic acid methyl ester], the pest or weed control (usually the degree to which the test organism was suppressed or injured, in per cent) at 140 g/ha in series [1] came out at 100%; in series [2], 95%; in series [3], 95%.
On to `COC(=O)c1nc(-c2ccc(Cl)c(C)c2F)nc(N)c1Cl` [Compound 11, 6-Amino-5-chloro-2-(4-chloro-2-fluoro-3-methylphenyl)pyrimidine-4-carboxylic acid methyl ester], for which the melting point (commonly the temperature, or range, at which the solid turns liquid) is 166 to 168 °C. The same compound returned a pest or weed control at 140 g/ha in series [1] of 95%. In series [4], this compound gave a pest or weed control at 140 g/ha of 60%. In series [5], this compound had a pest or weed control at 140 g/ha of 100%. In addition, the pest or weed control at 140 g/ha in series [2] was 95%. Besides, in series [3], the pest or weed control at 140 g/ha was 100%. The pest or weed control at 140 g/ha in series [6] is 100%.
In turn, `COC(=O)c1nc(-c2ccc(Cl)c(OC)c2F)nc(N)c1F` [Compound 12, 6-amino-2-(4-chloro-2-fluoro-3-methoxy-phenyl)-5-fluoro-pyrimidine-4-carboxylic acid methyl ester] yielded a melting point of 200 to 202 °C. In series [1], this compound yielded a pest or weed control at 140 g/ha of 95%. In series [2], the pest or weed control at 140 g/ha worked out at 85%. Moreover, in series [3], the pest or weed control at 140 g/ha was determined as 100%.
Turning to `COC(=O)c1nc(-c2ccc(Cl)c(SC(F)(F)F)c2F)nc(N)c1Cl` [Compound 14, 6-amino-5-chloro-2-(4-chloro-2-fluoro-3-trifluoro-methylthiophenyl)pyrimidine-4-carboxylic acid methyl ester], the melting point lay within 167 to 169 °C. In series [1], this compound had a pest or weed control at 140 g/ha of 50%. The same compound yielded a pest or weed control at 140 g/ha in series [2] of 80%. In series [3], this compound registered a pest or weed control at 140 g/ha of 90%.
Compound `Cc1c(F)sc(-c2nc(N)c(Cl)c(C(=O)O)n2)c1Cl` [Compound 16, 6-Amino-5-chloro-2-(4-chloro-2-fluoro-3-methylthiophenyl)pyrimidine-4-carboxylic acid] showed a melting point of 139 to 141 °C.
On to `COc1cc(-c2nc(N)c(Cl)c(C(=O)O)n2)c(F)cc1Cl` [Compound 17, 6-Amino-5-chloro-2-(4-chloro-2-fluoro-5-methoxyphenyl)pyrimidine-4-10 carboxylic acid], for which the “% Control CHEAL” value amounted to 100% in series [1] and 95% in series [4]. The “% Control ABUTH” value in series [5] came out at 100%; in series [2] it was 50%. For the same compound, the entries for the “% Control HELAN” value in series [3] and in series [6] were 80% and 0%, respectively.
Take `COc1c(Cl)ccc(-c2nc(N)c(Cl)c(C(=O)O)n2)c1Cl` [Compound 18, 6-Amino-5-chloro-2-(2,4-dichloro-3-methoxyphenyl)pyrimidine-4-carboxylic acid]: the pest or weed control at 140 g/ha in series [1] was 100%; in series [4] it was 100%; in series [5], 100%; in series [2], 75%; in series [3], 95%; in series [6] it was 100%.
In turn, `Cc1c(Cl)ccc(-c2nc(N)c(Cl)c(C(=O)O)n2)c1F` [Compound 20, 6-Amino-5-chloro-2-(4-chloro-2-fluoro-3-methylphenyl)pyrimidine-4-carboxylic acid] registered a melting point of 210 to 212 °C. In series [1], this compound showed a pest or weed control at 140 g/ha of 100%. Moreover, the pest or weed control at 140 g/ha in series [2] was found to be 90%. For the same compound, in series [3], the pest or weed control at 140 g/ha is 100%.
Turning to `Nc1nc(-c2ccc(Cl)c(OCC(F)F)c2F)nc(C(=O)O)c1Cl` [Compound 21, 6-Amino-5-chloro-2-[4-chloro-3-(2,2-difluoroethoxy)-2-fluorophenyl]-pyrimidine-4-carboxylic acid], the pest or weed control at 140 g/ha in series [1] is 90%; in series [2], 0%; in series [3], 80%.
The corresponding values for `Nc1nc(-c2ccc3c(c2F)OCO3)nc(C(=O)O)c1Cl` [Compound 22, 6-Amino-5-chloro-2-(4-fluoro-benzo[1,3]-dioxol-5-yl)pyrimidine-4-carboxylic acid] are 95%, 80% and 90%.
`CN(C)c1c(Cl)ccc(-c2nc(N)c(Cl)c(C(=O)O)n2)c1F` [Compound 23, 6-Amino-5-chloro-2-(4-chloro-3-dimethylamino-2-fluorophenyl)pyrimidine-4-carboxylic acid]: the melting point is 181 to 183 °C. Further, the pest or weed control at 140 g/ha in series [1] stood at 100%. Moreover, the pest or weed control at 140 g/ha in series [2] was 95%. For the same compound, the pest or weed control at 140 g/ha in series [3] was 95%.
Consider `Nc1nc(-c2ccc(Cl)c(C(F)F)c2F)nc(C(=O)O)c1Cl` [Compound 24, 6-Amino-5-chloro-2-(4-chloro-3-difluoromethyl-2-fluorophenyl)pyrimidine-4-carboxylic acid], for which the melting point lay within 166 to 168 °C. In addition, the pest or weed control at 140 g/ha in series [1] was determined as 95%. Further, the pest or weed control at 140 g/ha in series [2] was determined as 80%. Moreover, the pest or weed control at 140 g/ha in series [3] was found to be 90%.
As to `COc1c(Cl)ccc(-c2nc(N)c(Br)c(C(=O)O)n2)c1F` [Compound 25, 6-Amino-5-bromo-2-(4-chloro-2-fluoro-3-methoxyphenyl)pyrimidine-4-carboxylic acid], the melting point was in the range of 173 to 175 °C. In series [1], this compound gave a pest or weed control at 140 g/ha of 100%. Moreover, the pest or weed control at 140 g/ha in series [2] worked out at 95%. This compound also registered a pest or weed control at 140 g/ha in series [3] of 100%.

Values taken from US9199943B2, “2-(poly-substituted aryl)-6-amino-5-halo-4-pyrimidinecarboxylic acids and their use as herbicides” (Dow AgroSciences, LLC., priority 2006, dated 2015).
